Results: patent US20260077051A1, “COMPOUNDS FOR THE DEGRADATION OF EGFR KINASE” (BeOne Medicines I GmbH, priority 2023, published 2026)

Key:
[1] = target: T1, EGFR-L858R/C797S (H1975-clone #8 cells) (Homo sapiens, UniProt P00533, C797S/L858R); experiment: EGFR degradation in H1975-clone#8 (L858R/C797S) cells (HTRF assay); assay type: cell-based; conditions: 16 h treatment; for DC50: IC50(DC50) of EGFR degradation; for Dmax: maximum percentage of inhibition (degradation)
T1 construct: expressed in transfected cells; host or cells: H1975 (lentiviral transduction, endogenous EGFR knocked out, single clone #8)
T1 sequence (P00533 25-1210 C797S/L858R): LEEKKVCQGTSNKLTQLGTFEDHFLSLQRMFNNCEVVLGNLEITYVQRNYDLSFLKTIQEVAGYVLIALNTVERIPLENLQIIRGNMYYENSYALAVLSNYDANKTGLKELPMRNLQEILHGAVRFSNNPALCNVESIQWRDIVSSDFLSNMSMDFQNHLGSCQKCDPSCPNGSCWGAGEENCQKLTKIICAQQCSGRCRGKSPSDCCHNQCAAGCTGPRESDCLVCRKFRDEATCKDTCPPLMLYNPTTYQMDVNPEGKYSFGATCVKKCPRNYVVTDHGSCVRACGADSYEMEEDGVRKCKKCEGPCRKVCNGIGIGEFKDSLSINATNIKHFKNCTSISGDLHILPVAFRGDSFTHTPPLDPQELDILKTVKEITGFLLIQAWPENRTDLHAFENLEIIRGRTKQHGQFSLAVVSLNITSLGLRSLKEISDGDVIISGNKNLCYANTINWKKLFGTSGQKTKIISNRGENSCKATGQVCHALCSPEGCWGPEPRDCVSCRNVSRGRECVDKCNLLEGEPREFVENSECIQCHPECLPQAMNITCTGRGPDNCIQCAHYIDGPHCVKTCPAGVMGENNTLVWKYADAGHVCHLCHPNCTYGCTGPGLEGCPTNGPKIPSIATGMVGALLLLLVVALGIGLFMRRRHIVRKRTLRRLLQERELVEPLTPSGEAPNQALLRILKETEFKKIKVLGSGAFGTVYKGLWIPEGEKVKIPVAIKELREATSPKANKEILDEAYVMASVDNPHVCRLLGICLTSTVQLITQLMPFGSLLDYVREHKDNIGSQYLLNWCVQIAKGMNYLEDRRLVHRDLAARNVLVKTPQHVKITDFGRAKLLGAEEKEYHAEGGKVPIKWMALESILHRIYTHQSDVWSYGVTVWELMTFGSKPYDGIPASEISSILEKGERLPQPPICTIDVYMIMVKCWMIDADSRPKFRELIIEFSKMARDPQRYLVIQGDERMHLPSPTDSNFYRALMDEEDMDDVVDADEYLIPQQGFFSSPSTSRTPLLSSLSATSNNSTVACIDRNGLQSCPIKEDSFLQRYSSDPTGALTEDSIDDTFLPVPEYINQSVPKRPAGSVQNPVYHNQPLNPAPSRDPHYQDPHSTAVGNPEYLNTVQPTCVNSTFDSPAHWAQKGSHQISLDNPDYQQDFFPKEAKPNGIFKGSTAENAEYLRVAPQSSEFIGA
Description: H1975-clone #8 (L858R/C797S): EGFR-L858R/C797S were stably expressed in H1975 cell lines by lentivirus-mediated over-expression, respectively. The EGFR over-expressed cells then underwent knockout, in which the EGFR targeting sgRNA was designed to only target the endogenous EGFR copies and preserve the exogenous EGFR copies. Followed by the knockout, the edited H1975 cells were seeded in 96 well plates at the concentration of […], cultured for about 2 weeks to allow single clones formation. The formed clones were screened by DNA sequencing and whole exon sequencing analysis for the desired edition. H1975-clone #8 were finally confirmed as homozygous L858R/C797S EGFR clones.
(§1) H1975-#8 and BaF3-L858R cells are treated with compounds diluted in 0.1% DMSO cell culture medium on day 2, incubate for 16 h, 37° C., 5% CO2. the final concentration of compounds in all assay is start with 10 uM, 5-fold dilution, total 8 doses were included.
(§2) After 16 h treatment, for H1975-#8 cells, add 100 ul HTRF 1× lysis buffer to each well; for BaF3-L858R cells, add 20 μl 4× lysis buffer to each well; seal the plate and incubate 1 hour at room temperature on a plate shaker; Once the cells are lysed, 16 μL of cell lysate are transferred to a PE 384-well HTRF detection plate; 4 μL of pre-mixed HTRF antibodies are added to each well; Cover the plate with a plate sealer, spin 1000 rpm for 1 min, Incubate overnight at room temperature; Read on BMG PheraStar with HTRF protocol (337 nm-665 nm-620 nm).
(§3) The inhibition (degradation) percentage of the compound was calculated by the following equation:
(§4) High control=Cell group with added DMSO and without compound, indicating microplate readings without EGFR degradation;
(§5) Dmax is the maximum percentage of inhibition (degradation).
(§6) The IC50(DC50) value of a compound can be obtained by fitting the following equation
(§7) Wherein, X and Y are known values, and IC50, Hillslope, Top and Bottom are the parameters obtained by fitting with software. Y is the inhibition percentage (calculated from the equation), X is the concentration of the compound; IC50 is the concentration of the compound when the 50% inhibition is reached. The smaller the IC50 value is, the stronger the inhibitory ability of the compound is. Vice versa, the higher the IC50 value is, the weaker the ability the inhibitory ability of the compound is; Hillslope represents the slope of the fitted curve, generally around 1*; Bottom represents the minimum value of the curve obtained by data fitting, which is generally 0%±20%; Top represents the maximum value of the curve obtained by data fitting, which is generally 100%±20%. The experimental data were fitted by calculating and analyzing with Dotmatics data analysis software.

[2] = target: T2, EGFR L858R (BaF3-L858R cells) (Homo sapiens, UniProt P00533, L858R); experiment: EGFR degradation in BaF3-L858R cells (HTRF assay); assay type: cell-based; conditions: 16 h treatment; for DC50: IC50(DC50) of EGFR degradation; for Dmax: maximum percentage of inhibition (degradation)
T2 construct: host or cells: BaF3
T2 sequence (P00533 25-1210 L858R): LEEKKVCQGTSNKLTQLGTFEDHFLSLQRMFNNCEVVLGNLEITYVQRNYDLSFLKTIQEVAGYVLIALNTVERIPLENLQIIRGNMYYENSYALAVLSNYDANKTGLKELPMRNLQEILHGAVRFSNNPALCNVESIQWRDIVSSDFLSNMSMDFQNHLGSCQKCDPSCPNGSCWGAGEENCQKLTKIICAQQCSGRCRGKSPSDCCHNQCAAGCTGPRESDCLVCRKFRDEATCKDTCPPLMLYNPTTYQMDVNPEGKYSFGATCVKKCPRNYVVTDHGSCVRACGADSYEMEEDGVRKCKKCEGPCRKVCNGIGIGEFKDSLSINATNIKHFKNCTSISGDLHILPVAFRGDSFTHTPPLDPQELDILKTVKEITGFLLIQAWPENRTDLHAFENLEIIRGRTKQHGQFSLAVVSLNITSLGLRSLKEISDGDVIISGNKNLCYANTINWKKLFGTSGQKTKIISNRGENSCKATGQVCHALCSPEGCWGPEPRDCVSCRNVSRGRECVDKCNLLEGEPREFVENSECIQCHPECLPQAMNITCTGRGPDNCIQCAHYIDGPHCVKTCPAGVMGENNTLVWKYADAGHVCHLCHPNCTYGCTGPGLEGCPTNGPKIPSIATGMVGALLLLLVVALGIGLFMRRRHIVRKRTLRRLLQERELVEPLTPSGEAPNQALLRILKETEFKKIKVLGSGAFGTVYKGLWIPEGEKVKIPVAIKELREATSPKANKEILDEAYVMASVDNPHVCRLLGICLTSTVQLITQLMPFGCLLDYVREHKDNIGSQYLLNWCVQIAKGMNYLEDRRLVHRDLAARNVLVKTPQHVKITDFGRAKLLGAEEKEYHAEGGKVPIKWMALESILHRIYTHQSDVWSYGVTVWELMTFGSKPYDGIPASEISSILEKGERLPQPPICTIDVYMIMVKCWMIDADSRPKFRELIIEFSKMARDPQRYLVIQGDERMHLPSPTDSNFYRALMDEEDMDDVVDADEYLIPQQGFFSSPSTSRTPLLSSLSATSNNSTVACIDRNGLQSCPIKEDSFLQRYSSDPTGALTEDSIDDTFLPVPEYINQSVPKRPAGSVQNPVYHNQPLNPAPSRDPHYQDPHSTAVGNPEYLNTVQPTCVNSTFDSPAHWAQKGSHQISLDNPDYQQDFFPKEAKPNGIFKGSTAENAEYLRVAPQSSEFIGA
Description: BaF3-L858R (abbv. L858R) cell were purchased from Kangyuan Bochuang Biotechnology (Beijing) Co., Ltd.
as §1, §2, §3, §4, §5, §6, §7

SMILES | DC50 [1] | Dmax [1] | DC50 [2] | Dmax [2]
CCc1nc(C2CCC(=O)NC2=O)ccc1N1CCC(N2CCN(c3ccc4c(c3)N3C[C@H]5C[C@@H]5CCOc5c(cnn5C)-c5cc(cc(C)n5)C(=O)/N=C/3N4)CC2)CC1 (some centres unmarked) [Example 14, 3-(5-(4-(4-4((7^1S,7^2R,E)-1^1,2^6-dimethyl-3-oxo-5^2,5^3-dihydro-1^1H,5^1H-10-oxa-4-aza-5 (2,1)-benzo[d]imidazola-2 (2,4)-pyridina-1 (4,5)-pyrazola-7 (1,2)-cyclopropanacyclodecaphane-5^6-yl)piperazin-1-yl)piperidin-1-yl)-6-ethylpyridin-2-yl)piperidine-2,6-dione] | 5.8 nM | 51.4% | 9.37 nM | 84.4%
Cc1cc2cc(n1)-c1cnn(C)c1OCC[C@]1(C)C[C@H]1CN1/C(=N/C2=O)Nc2ccc(N3CCN(C4CCN(c5ccc(C6CCC(=O)NC6=O)nc5C)CC4)CC3)cc21 (some centres unmarked) [Example 19, 3-(6-methyl-5-(4-(4-((7^1R,7^2S,E)-1^1,2^6,7^2-trimethyl-3-oxo-5^2,5^3-dihydro-1^1H,5^1H-10-oxa-4-aza-5 (2,1)-benzo[d]imidazola-2 (2,4)-pyridina-1 (4,5)-pyrazola-7 (1,2)-cyclopropanacyclodecaphane-5^6-yl)piperazin-1-yl)piperidin-1-yl)pyridin-2-yl)piperidine-2,6-dione] | 3 nM | 75% | 1.93 nM | 94.5%
Cc1cc2cc(n1)-c1cnn(C)c1OCC[C@H]1C[C@@H]1CN1/C(=N/C2=O)Nc2ccc(N3CCN(C4CN(C5CCN(c6ccc(C7CCC(=O)NC7=O)nc6C)CC5)C4)CC3)cc21 (some centres unmarked) [Example 20, 3-(5-(4-(3-(4-((7^1S,7^2R,E)-1^1,2^6-dimethyl-3-oxo-5^2,5^3-dihydro-1^1H,5^1H-10-oxa-4-aza-5 (2,1)-benzo[d]imidazola-2 (2,4)-pyridina-1 (4,5)-pyrazola-7 (1,2)-cyclopropanacyclodecaphane-5^6-yl)piperazin-1-yl)azetidin-1-yl)piperidin-1-yl)-6-methylpyridin-2-yl)piperidine-2,6-dione] | 0.603 nM | 59.1% | 12.4 nM | 86.8%
Cc1cc2cc(n1)-c1cnn(C)c1OCC[C@H]1C[C@@H]1CN1/C(=N/C2=O)Nc2ccc(N3CCN(CCc4c(C)cc(C5CCC(=O)NC5=O)nc4C)CC3)cc21 (some centres unmarked) [Example 21, 3-(5-(2-(4-((7^1S,7^2R,E)-1^1,2^6-dimethyl-3-oxo-5^2,5^3-dihydro-1^1H,5^1H-10-oxa-4-aza-5 (2,1)-benzo[d]imidazola-2 (2,4)-pyridina-1 (4,5)-pyrazola-7 (1,2)-cyclopropanacyclodecaphane-5^6-yl)piperazin-1-yl)ethyl)-4,6-dimethylpyridin-2-yl)piperidine-2,6-dione] | 19.3 nM | 40.2% | 1.65 nM | 82.8%
Cc1cc2cc(n1)-c1cnn(C)c1OCC[C@H]1C[C@@H]1CN1/C(=N/C2=O)Nc2ccc(N3CCN(C4CN(C5CCN(c6c(C)cc(C7CCC(=O)NC7=O)nc6C)CC5)C4)C[C@@H]3C)cc21 (stereo partly drawn) [Example 22, 3-(5-(4-(3-((S)-4-((7^1S,7^2R,E)-1^1,2^6-dimethyl-3-oxo-5^2,5^3-dihydro-1^1H,5^1H-10-oxa-4-aza-5 (2,1)-benzo[d]imidazola-2 (2,4)-pyridina-1 (4,5)-pyrazola-7 (1,2)-cyclopropanacyclodecaphane-5^6-yl)-3-methylpiperazin-1-yl)azetidin-1-yl)piperidin-1-yl)-4,6-dimethylpyridin-2-yl)piperidine-2,6-dione] | 2.83 nM | 67.9% | 3.97 nM | 83.2%

More lines, in order of falling DC50 [1], values ahead:

DC50 [1] | Dmax [1] | DC50 [2] | Dmax [2] | SMILES
7.82 nM | 73.3% | 18 nM | 76.4% | Cc1cc2cc(n1)-c1cnn(C)c1OCC[C@H]1C[C@@H]1CN1/C(=N/C2=O)Nc2ccc(N3CCN(C4CCN(c5cc(F)c(C6CCC(=O)NC6=O)nc5C)CC4)CC3)cc21 (some centres unmarked) [Example 16, 3-(5-(4-(4-((7^1S,7^2R,E)-1^1,2^6-dimethyl-3-oxo-5^2,5^3-dihydro-1^1H,5^1H-10-oxa-4-aza-5 (2,1)-benzo[d]imidazola-2 (2,4)-pyridina-1 (4,5)-pyrazola-7 (1,2)-cyclopropanacyclodecaphane-5^6-yl)piperazin-1-yl)piperidin-1-yl)-3-fluoro-6-methylpyridin-2-yl)piperidine-2,6-dione]
5.12 nM | 66.3% | 6.69 nM | 84.6% | Cc1cc2cc(n1)-c1cnn(C)c1OCC[C@H]1C[C@@H]1CN1/C(=N/C2=O)Nc2ccc(N3CCN(C4CCN(c5cccc6c5C(C)(C)C(=O)N6C5CCC(=O)NC5=O)CC4)CC3)cc21 (some centres unmarked) [Example 18, 3-(4-(4-(4-((7^1S,7^2R,E)-1^1,2^6-dimethyl-3-oxo-5^2,5^3-dihydro-1^1H,5^1H-10-oxa-4-aza-5 (2,1)-benzo[d]imidazola-2 (2,4)-pyridina-1 (4,5)-pyrazola-7 (1,2)-cyclopropanacyclodecaphane-5^6-yl)piperazin-1-yl)piperidin-1-yl)-3,3-dimethyl-2-oxoindolin-1-yl)piperidine-2,6-dione]
4.96 nM | 46.1% | 4.48 nM | 82.5% | Cc1cc2cc(n1)-c1cnn(C)c1OCC[C@H]1C[C@@H]1CN1/C(=N/C2=O)Nc2ccc(N3CCN(C4CCN(c5c(C)cc(C6CCC(=O)NC6=O)nc5C)CC4)CC3)cc21 (some centres unmarked) [Example 15, 3-(5-(4-(4-((7^1S,7^2R,E)-1^1,2^6-dimethyl-3-oxo-5^2,5^3-dihydro-1^1H,5^1H-10-oxa-4-aza-5 (2,1)-benzo[d]imidazola-2 (2,4)-pyridina-1 (4,5)-pyrazola-7 (1,2)-cyclopropanacyclodecaphane-5^6-yl)piperazin-1-yl)piperidin-1-yl)-4,6-dimethylpyridin-2-yl)piperidine-2,6-dione]
2.08 nM | 49.8% | 3.66 nM | 80% | Cc1cc2cc(n1)-c1cnn(C)c1OCC[C@H]1C[C@@H]1CN1/C(=N/C2=O)Nc2ccc(N3CCN(C4CN(C5CCN(c6c(C)cc(C7CCC(=O)NC7=O)nc6C)CC5)C4)C[C@H]3C)cc21 (stereo partly drawn) [Example 24, 3-(5-(4-(3-((R)-4-((7^1S,7^2R,E)-1^1,2^6-dimethyl-3-oxo-5^2,5^3-dihydro-1^1H,5^1H-10-oxa-4-aza-5 (2,1)-benzo[d]imidazola-2 (2,4)-pyridina-1 (4,5)-pyrazola-7 (1,2)-cyclopropanacyclodecaphane-5^6-yl)-3-methylpiperazin-1-yl)azetidin-1-yl)piperidin-1-yl)-4,6-dimethylpyridin-2-yl)piperidine-2,6-dione]
1.65 nM | 57% | 2.42 nM | 91.5% | CCc1nc(C2CCC(=O)NC2=O)ccc1N1CCC(N2CCN(c3ccc4c(c3)N3C[C@@H]5C[C@@]5(C)CCOc5c(cnn5C)-c5cc(cc(C)n5)C(=O)/N=C/3N4)CC2)CC1 (some centres unmarked) [Example 25, 3-(6-ethyl-5-(4-(4-((7^1R,7^2S,E)-1^1,2^6,7^2-trimethyl-3-oxo-5^2,5^3-dihydro-1^1H,5^1H-10-oxa-4-aza-5 (2,1)-benzo[d]imidazola-2 (2,4)-pyridina-1 (4,5)-pyrazola-7 (1,2)-cyclopropanacyclodecaphane-5^6-yl)piperazin-1-yl)piperidin-1-yl)pyridin-2-yl)piperidine-2,6-dione]
1.6 nM | 68.7% | 2.32 nM | 84.1% | Cc1cc2cc(n1)-c1cnn(C)c1OCC[C@]1(C)C[C@H]1CN1/C(=N/C2=O)Nc2ccc(N3CCN(C4CCN(c5cc(F)c([C@H]6CCC(=O)NC6=O)c(F)c5)CC4)CC3)cc21 [Example 17, (R)-3-(2,6-difluoro-4-(4-(4-((7^1R,7^2S,E)-1^1,2^6,7^2-trimethyl-3-oxo-5^2,5^3-dihydro-1^1H,5^1H-10-oxa-4-aza-5 (2,1)-benzo[d]imidazola-2 (2,4)-pyridina-1 (4,5)-pyrazola-7 (1,2)-cyclopropanacyclodecaphane-5^6-yl)piperazin-1-yl)piperidin-1-yl)phenyl)piperidine-2,6-dione]
